Measured values reported in patent US12053467B2, “Method of treating fibrosis” (NovMeta Pharma Co., Ltd., priority 2020, dated 2024).

Columns and labels:
[1] = tested on: lung hydroxyproline (collagen deposition); assay: Hydroxyproline assay of lung in bleomycin-induced IPF mice; assay type: in vivo, ICR mice; details: 5, 25, 50 and 100 mg/kg/day oral, daily for 4 weeks, vs BLM alone
Description: (§1) Seven-week-old male ICR mice from Koatech Co. Ltd (Gyeonggi-do, Korea). All animal experiments were approved by the Ethics Review Committee of the Advanced Bio Convergence Center, Republic of Korea. Mice were housed in specific pathogen-free conditions with a 12 hr light-dark cycle and had free access to water and food. Body weight and caloric intake were monitored throughout the experiments. The mice were housed in single cage and food intake was calculated of each animals in the cage. 5 or 25 or 50 or 100 mg/kg/day CHP monohydrate, 5 mg/kg/day CHP+10 mg/kg/day Zn, or PBS (vehicle control), was orally administered daily for 4 weeks. At the conclusion of the in vivo experiment, the mice were sacrificed and tissues were collected and weighed. Tissue samples were stored at −80° C. until analysis.
(§2) Mice maintained under anesthesia with isoflurane were intravenously administered bleomycin 75 mg/kg in saline. The first administration of CHP hydrate or CHP hydrate+Zn was performed 30 min after bleomycin administration.
Collagen deposition was determined by measuring the total hydroxyproline (HYP) content, which was measured by a HYP assay kit according to the provided manufacturer's protocol. […] After neutralization with hydrochloric acid, the hydrolyzation products were diluted with distilled water, and assessed at 550 nm and expressed as ug/10 mg.

Collagen 4 (Col4) = assay: Col4 mRNA (real-time PCR) in bleomycin-induced pulmonary fibrosis mice; assay type: in vivo, ICR mice; details: lung, 5, 25, 50 and 100 mg/kg/day oral, daily for 4 weeks, vs BLM alone (set 1.0)
Description: as §1
(§3) Mice maintained under anesthesia with isoflurane were intravenously administered bleomycin 75 mg/kg in saline. […]
(§4) Total RNA was prepared by an RNeasy Mini kit (QIAGEN) according to the manufacturer's instructions. RNA integrity was assessed by an automated microfluidics-based system (Bioanalyzer 2100, Agilent, Palo Alto, CA, USA). […] A melt curve was produced to confirm a single gene-specific peak and detect primer/dimer formation by heating the samples from 65 to 95° C. in 0.5° C. increments with a dwell time at each temperature of 10 sec while continuously monitoring fluorescence. […]

Collagen 1 (Col1) = assay: Col1 mRNA (real-time PCR) in bleomycin-induced pulmonary fibrosis mice; assay type: in vivo, ICR mice; details: lung, 5, 25, 50 and 100 mg/kg/day oral, daily for 4 weeks, vs BLM alone (set 1.0)
Description: as §1, §3, §4

[2] = pKa of CHP hydrate material; assay type: physicochemical; details: characterising feature (b)
Collagen 3 (Col3) = assay: Col3 mRNA (real-time PCR) in bleomycin-induced pulmonary fibrosis mice; assay type: in vivo, ICR mice; details: lung, 5, 25, 50 and 100 mg/kg/day oral, daily for 4 weeks, vs BLM alone (set 1.0)
Description: as §1, §3, §4

[3] = tested on: bleomycin (BLM)-induced pulmonary fibrosis; assay: Bleomycin-induced pulmonary fibrosis mouse model, overall effect; assay type: in vivo, ICR mice; details: 5, 25, 50 and 100 mg/kg/day oral, 4 weeks; compared to BLM alone group; FIGS. 1-7
Description: as §1, with “analysis. Mice maintained under anesthesia with isoflurane were intravenously administered bleomycin 75 mg/kg in saline. The first administration of CHP hydrate or CHP hydrate+Zn was performed 30 min after bleomycin administration.” for “analysis.”

[4] = tested on: α-smooth muscle actin (aSMA); assay: αSMA mRNA (real-time PCR) in bleomycin-induced pulmonary fibrosis mice; assay type: in vivo, ICR mice; details: lung, 5, 25, 50 and 100 mg/kg/day oral, daily for 4 weeks, vs BLM alone (set 1.0)
Description: as §1, §3, §4

[5] = tested on: transforming growth factor-β (TGF-β); assay: TGF-β mRNA (real-time PCR) in bleomycin-induced pulmonary fibrosis mice; assay type: in vivo, ICR mice; details: lung; 5, 25, 50 and 100 mg/kg/day oral, daily for 4 weeks; vs BLM alone (set 1.0)
Description: as §1, §3, §4

fibronectin [6] = assay: Fibronectin mRNA (real-time PCR) in bleomycin-induced pulmonary fibrosis mice; assay type: in vivo, ICR mice; details: lung; 5, 25, 50 and 100 mg/kg/day oral, daily for 4 weeks; vs BLM alone (set 1.0)
Description: as §1, §3, §4

fibronectin [7] = assay: Western blot of fibronectin in bleomycin-induced pulmonary fibrosis mice; assay type: in vivo, ICR mice; details: CHP 5 mg/kg oral, daily for 4 weeks; compared to BLM group
Description: as §1, §2
20-30 μg of lysates were separated on BOLT™ 4-12% Bis-Tris Plus gels with MES running buffer and transferred to nitrocellulose membranes using TRANS-BLOT® TURBO™ Transfer System (Bio-Rad). […]

[8] = tested on: zinc absorption and uptake by muscle tissues and by intestinal segments; details: Life Sciences 70 (2001), 337-348; cited from earlier work

pKa [2]	Compound	lung hydroxyproline (HYP) content / accumulation of collagen in the lung ([1]; hydrate)	relative Col4 mRNA expression level (Collagen 4 (Col4); hydrate)	relative Col1 mRNA expression level (Collagen 1 (Col1); hydrate)	relative Col3 mRNA expression level (Collagen 3 (Col3); hydrate)	inflammation and fibrosis biomarkers [3]	relative αSMA mRNA expression level ([4]; hydrate)	lung hydroxyproline (HYP) content / accumulation of collagen in the lung [1]	relative TGF-β mRNA expression level [5]	relative Col4 mRNA expression level (Collagen 4 (Col4))	relative fibronectin mRNA expression level (fibronectin [6])	fibronectin protein levels (Western blotting) (fibronectin [7])	relative Col1 mRNA expression level (Collagen 1 (Col1))	relative Col3 mRNA expression level (Collagen 3 (Col3))	zinc absorption and uptake [8]	relative αSMA mRNA expression level [4]
~6.4	O=C1N[C@@H](Cc2cnc[nH]2)C(=O)N2CCC[C@@H]12 [CHP hydrate, cyclo(-His-Pro) hydrate]	significantly decreased	dramatically reduced	dramatically reduced	dramatically reduced	significantly decreased	dramatically reduced									
	O=C1N[C@@H](Cc2cnc[nH]2)C(=O)N2CCC[C@@H]12 [CHP, Cyclo(-His-Pro)]							significantly reduces	significantly reduces	significantly reduces	significantly reduces	dramatically reduced	significantly reduces	significantly reduces	enhanced	significantly reduces
